Data taken from paper PMC9865645, “The Impact of N^ε-Acryloyllysine Piperazides on the Conformational Dynamics of Transglutaminase 2” (International Journal of Molecular Sciences, 2023).
Where two headings read alike, the source gives them in different places.

Key:
[1] = target: T1, His6-hTGase 2 (Homo sapiens, UniProt P21980); assay: fluorimetric activity assay (substrate Z-Glu(HMC)-Gly-OH) for kinact/KI; type: biochemical; settings: mean (SEM) of two to four experiments
T1 construct: purchased Zedira (Darmstadt, Germany) T022, lot 0716a
T1 sequence (P21980 1-687): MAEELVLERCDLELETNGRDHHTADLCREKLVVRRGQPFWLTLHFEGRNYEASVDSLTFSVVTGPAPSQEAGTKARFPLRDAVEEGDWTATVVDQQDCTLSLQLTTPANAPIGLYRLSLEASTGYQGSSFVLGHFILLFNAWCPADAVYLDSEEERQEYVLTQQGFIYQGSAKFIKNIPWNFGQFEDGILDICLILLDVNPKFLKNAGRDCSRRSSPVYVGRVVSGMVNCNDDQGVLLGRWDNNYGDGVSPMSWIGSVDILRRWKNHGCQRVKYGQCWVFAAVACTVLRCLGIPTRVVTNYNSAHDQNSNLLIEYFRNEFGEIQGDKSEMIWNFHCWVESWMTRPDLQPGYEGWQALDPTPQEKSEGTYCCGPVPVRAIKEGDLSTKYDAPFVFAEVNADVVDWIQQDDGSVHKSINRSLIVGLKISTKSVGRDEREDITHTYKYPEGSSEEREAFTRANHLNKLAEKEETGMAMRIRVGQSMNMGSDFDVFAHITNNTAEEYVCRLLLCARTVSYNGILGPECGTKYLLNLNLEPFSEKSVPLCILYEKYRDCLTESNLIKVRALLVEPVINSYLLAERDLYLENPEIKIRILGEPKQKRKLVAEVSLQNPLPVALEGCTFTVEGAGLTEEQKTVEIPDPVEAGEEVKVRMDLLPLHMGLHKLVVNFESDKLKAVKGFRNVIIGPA

[2] = target: T2, in-house produced N-terminally Twin-Strep-tagged hTGase 2 (Homo sapiens, UniProt P21980); assay: fluorescence anisotropy (FA)-based transamidase activity assay, in-house Twin-Strep-tagged hTGase 2; type: biochemical; settings: 5 min pre-incubation of enzyme and inhibitor; mean (SEM) of three experiments
T2 construct: thrombin cleavage site (N); made in house; host or cells: E. coli BL21(DE3)
T2 sequence (P21980 1-687): T1 sequence (P21980 1-687)
Text: The gene of hTGase 2 (Uniprot ID: P21980) with an N-terminal thrombin cleavage site was cloned into the pPSG-IBA105 vector containing the sequence for an N-terminal Twin-Strep-tag (IBA Lifesciences GmbH, Göttingen, Germany) to obtain the final plasmid pPSG-IBA105/TCS-hTGase 2. The plasmid construct was verified by DNA sequencing (Eurofins Genomics Germany GmbH) and then transformed into E. coli BL21(DE3) by the heat–shock method. hTGase 2-expressing E. coli cells were lysed by lysozyme treatment, and hTGase 2 was purified by affinity chromatography on an ÄKTA purifier UPC 10 FPLC equipped with a Strep-Tactin XT cartridge (GE Healthcare Europe GmbH, Freiburg, Germany). Identity and purity of self-produced hTGase 2 were verified by SDS-PAGE and Western Blot analysis, respectively. Protein concentration was determined according to Bradford. More detailed descriptions of the generation and characterization of the final plasmid construct pPSG-IBA105/TCS-hTGase 2 and the expression, purification, and characterization of the self-produced hTGase 2 protein will be published elsewhere (manuscript in preparation).
(§1) For the analysis of inhibitor 1 on self-produced hTGase 2, 2 µg/mL of the enzyme was used to guarantee comparability with the value reported by Wodtke et al., whereas all other experiments were performed with 5 µg/mL of either commercial or self-produced hTGase 2 (corresponding to 64.1 and 61.6 nM, respectively, when assuming 100% active protein). Parallel and perpendicular fluorescence intensities were measured over 1190 s in 35 s intervals (1) or over 1776 s in 48 s intervals (2, 3) and used to calculate the FA. Data of FA for the first 875 s (1) or 384 s (2, 3) were analyzed by linear regression, with slopes corresponding to enzymatic rates. Rates in the presence of inhibitor were normalized by dividing them by the respective rate in the absence of inhibitor, and normalized rates were analyzed according to Equation (S29) in Supplementary Materials to calculate values of IC50. Data analysis was performed with Microsoft Excel (Microsoft Office Professional Plus 2016, Microsoft® Corporation, USA) and GraphPad Prism version 5.03 or version 6.07 for Windows (GraphPad Software, La Jolla, CA, USA).

[3] = target: T3, hTGase 2 (Homo sapiens, UniProt P21980); assay: switchSENSE dynamic mode: upward motion (relative inverse slope, friction) of hTGase 2-dsDNA lever; settings: 10 µM inhibitor with 1 mM Ca^2+, 0.1% DMSO, then pure TE40; non-directed labeling
T3 construct: purchased Zedira (Darmstadt, Germany) T022, lot 0716a
T3 sequence (P21980 1-687): T1 sequence (P21980 1-687)
Method: Prior to the measurement of the switching kinetics of the differently conjugated hTGase 2, a complementary ssDNA without the enzyme (500 nM) was hybridized to the single-stranded capture strands on the chip electrodes to obtain the reference kinetics of the dsDNA lever. In addition, to determine the impact of CaCl2 and DMSO on the movement of the bare dsDNA lever, and thus on reference kinetics, its switching behavior was investigated in TE40, TE40 + 1 mM CaCl2, TE40 + 1 mM CaCl2 + 1% DMSO or TE40 + 1 mM CaCl2 + 0.1% DMSO.
Then, the dehybridization of the reference lever occurred during a regeneration step followed by the hybridization with an ssDNA-hTGase 2 conjugate (500 nM). Thereafter, the switching kinetics was recorded. […]
The impact on the hydrodynamic drag of the hTGase 2-functionalized lever was investigated under identical conditions for the three irreversible inhibitors 1–3: At first, the switching kinetics of the dsDNA lever and the hTGase 2-dsDNA conjugates were recorded. Secondly, the switching kinetics of the hTGase 2-dsDNA conjugates during and after Ca^2+ exposure were recorded using TE40 + 1 mM CaCl2 or TE40, respectively. […] In this process, the hydrodynamic drag was analyzed during the exposure to 10 µM inhibitor (for 6 min) dissolved in TE40 + 1 mM CaCl2 + 0.1% DMSO and to TE40 afterward. […]

[4] = target: T4, commercial His6-hTGase 2 (Homo sapiens, UniProt P21980); assay: fluorescence anisotropy (FA)-based transamidase activity assay, commercial His6-hTGase 2; type: biochemical; settings: 5 min pre-incubation of enzyme and inhibitor; mean (SEM) of three experiments
T4 construct: purchased Zedira (Darmstadt, Germany) T022, lot 0716a
T4 sequence (P21980 1-687): T1 sequence (P21980 1-687)
Method: as §1

[5] = parameters: method as in doi:10.1039/DT9920002039, PMID 1868851; settings: cited from earlier work
[6] = target: T4, commercial His6-hTGase 2; parameters: method as in PMID 29664627; settings: 5 min pre-incubation of enzyme and inhibitor; mean (SEM); previously reported; cited from earlier work
[7] = target: T1, His6-hTGase 2; parameters: method as in PMID 29664627; settings: mean (SEM); previously reported; cited from earlier work

| SMILES | kinact/KI [1] | IC50 [2] | friction (relative inverse slope) after removal of Ca^2+ and inhibitor ("after Ca^2+ + inhibitor") [3] | IC50 [4] | pK value of H2GTP^3− (γP-OH) [5] | pK value of H3GTP^2− (N7^+H) [5] | pK value of HGTP^4− (N1H) [5] | IC50 [6] | kinact/KI [7] |
| --- | --- | --- | --- | --- | --- | --- | --- | --- | --- |
| C=CC(=O)NCCCCC(NC(=O)Cc1ccccc1I)C(=O)N1CCN(c2ccc(C(F)(F)F)nc2)CC1 [Compound 3, N^α-(2-Iodophenylacetyl)-N^ε-acryloyl-L-lysin-4-(2-trifluoromethyl-5-yl)piperazide] | 4500 M⁻¹ s⁻¹ | 209 nM | significantly higher compared to “w/o” and “after Ca^2+” | 280 nM | – | – | – | – | – |
| Nc1nc2c(ncn2[C@@H]2O[C@H](COP(=O)(O)OP(=O)(O)OP(=O)(O)O)[C@@H](O)[C@H]2O)c(=O)[nH]1 [GTP] | – | – | – | – | 6.5 | 2.9 | 9.6 | – | – |
| C=CC(=O)NCCCCC(NC(=O)Cc1ccccc1)C(=O)N1CCN(c2cccc(F)n2)CC1 (stereo not shown) [Compound 1] | – | 135 nM | – | – | – | – | – | 108 nM | 3850 (240) ^e M^−1s^−1 |
